Assays:
PC12 cells [1] = experiment: MTT toxicity (safety evaluation) on PC12 nerve cells; format: cell-based; conditions: for cytotoxicity to PC12 cells: 3.75-60 μM, 24 h and 48 h, in words
Protocol: The toxicity of each drug to PC12 cells was determined by MTT assay. The principle of the MTT colorimetric method: there is succinate dehydrogenase in the mitochondria of living cells, which can make exogenous MTT become blue-purple crystal formazan insoluble in water, this phenomenon cannot be observed in dead cells. The blue-purple crystal formazan can be dissolved by DMSO, and the absorbance value is measured by a microplate reader at a wavelength of 490 nm, which in turn reflects the number of living cells. […] The operation method is as follows:
The cells were resuscitated with DMEM high glucose medium containing 10% fetal bovine serum and cultured in a 5% CO2 cell incubator at 37° C., when the cells grew to the logarithmic growth phase, they were inoculated into a 96-well plate and cultured for 24 hours, each well was added with 100 μL of each compound solution at the corresponding gradient concentration (60, 30, 15, 7.5, 3.75 μM), after incubation in the incubator for 24 h or 48 h, 20 μL of MTT was added to continue incubation for 4 h, the supernatant was discarded and 150 μL of DMSO was added to dissolve the blue-purple crystals, after shaking for 10 min, the cell viability was detected by a microplate reader, and classified according to the cytotoxicity standard. The relevant calculation formula is as follows: […]

[2] = ABTS free radical capture ability; format: biochemical; conditions: 20 min reaction in the dark
Protocol: 66.2 mg of K2S2O8 was weighed and placed in a 100 mL volumetric flask, pure water was added to the scale line to prepare a 2.45 mmol/L K2S2O8 solution. 192 mg of ABTS was accurately weighed and placed in a 25 mL volumetric flask, and the newly prepared K2S2O8 solution was added for dissolving and constant volume dilution, after standing in the dark for 20 h, the ABTS mother liquor was obtained. Before use, to make the measured value more accurate, the ABTS mother liquor needs to be diluted with a PBS solution of pH7.4 until the absorbance range of the ABTS working solution at 734 nm is 0.70±0.02.
Drug concentration screening: To avoid the complete removal of free radicals by excessive drug concentration and the inability to compare the ability to capture ABTS free radicals, a preliminary screening of drug concentration is required before the formal test. A gradient concentration of compound solution was prepared, and a gradient concentration of Vit C solution was prepared as a positive control. A total of 450 μL of ABTS working solution was accurately absorbed into a 1.5 mL EP tube, and 150 μL of the gradient solution of each group of drugs was added, after 20 min of reaction in the dark, 150 μL of the reaction solution was taken and placed in a 96-well plate, the absorbance was measured by a microplate reader. Three duplicate wells were set for each concentration, and the drug concentration with absorbance between 0.2-0.7 was selected for subsequent determination.
Determination operation: After the drug concentration screening was completed, 7 concentration gradient groups were set within this concentration range. A total of 450 μL of ABTS working solution was accurately absorbed into a 1.5 mL EP tube, and 150 μL of the gradient solution of each group of drugs was added. After 20 min of reaction in the dark, 150 μL of the reaction solution was taken and placed in a 96-well plate, the absorbance was measured by a microplate reader. Three duplicate wells were set for each concentration, the positive control group was a gradient solution of Vit C, and the blank control group was an equal volume of anhydrous ethanol.

PC12 cells [3] = experiment: Inhibition of H2O2-induced oxidative damage in PC12 cells; format: cell-based, rat; conditions: for effect on survival of H2O2-damaged PC12 cells: drug concentration below 30 μM, 24 h, in words
Protocol: After 24 hours of incubation in the incubator, the relative proliferation rates of the cells were calculated according to the method under Section 2.1.

PC12 cells [4] = experiment: Inhibition of corticosterone (CORT)-induced PC12 cell damage; format: cell-based, rat; conditions: 24 h; for effect on viability of CORT-damaged PC12 cells: 3.75-60 μM drug with 514.6 μM CORT, in words
[5] = Solubility detection of CAK01-CAK07; format: physicochemical
Text: The chlorinated monocarbonyl curcumin compounds CAK01-CAK07 prepared under the conditions of Example 1 were taken for nuclear magnetic resonance, mass spectrometry, solubility, and melting point detection.

SMILES | Rank (cytotoxicity standard) 24 h (PC12 cells [1]; PC12, 3.75 μM) | Relative growth rate (%) 24 h (PC12 cells [1]; PC12, 3.75 μM) [%] | Rank (cytotoxicity standard) 48 h (PC12 cells [1]; PC12, 3.75 μM) | Relative growth rate (%) 48 h (PC12 cells [1]; PC12, 3.75 μM) [%] | Rank (cytotoxicity standard) 24 h (PC12 cells [1]; PC12, 7.5 μM) | Relative growth rate (%) 24 h (PC12 cells [1]; PC12, 7.5 μM) [%] | Rank (cytotoxicity standard) 48 h (PC12 cells [1]; PC12, 7.5 μM) | Relative growth rate (%) 48 h (PC12 cells [1]; PC12, 7.5 μM) [%] | Rank (cytotoxicity standard) 24 h (PC12 cells [1]; PC12, 15 μM) | Relative growth rate (%) 24 h (PC12 cells [1]; PC12, 15 μM) [%] | Rank (cytotoxicity standard) 48 h (PC12 cells [1]; PC12, 15 μM) | Relative growth rate (%) 48 h (PC12 cells [1]; PC12, 15 μM) [%] | Rank (cytotoxicity standard) 24 h (PC12 cells [1]; PC12, 30 μM) | Relative growth rate (%) 24 h (PC12 cells [1]; PC12, 30 μM) [%] | Rank (cytotoxicity standard) 48 h (PC12 cells [1]; PC12, 30 μM) | Relative growth rate (%) 48 h (PC12 cells [1]; PC12, 30 μM) [%] | Rank (cytotoxicity standard) 24 h (PC12 cells [1]; PC12, 60 μM) | Relative growth rate (%) 24 h (PC12 cells [1]; PC12, 60 μM) [%] | Rank (cytotoxicity standard) 48 h (PC12 cells [1]; PC12, 60 μM) | IC50 values of ABTS captured [2] [µg/mL] | other results
O=C1/C(=C/c2cc(Cl)c(O)c(Cl)c2)CNC/C1=C\c1cc(Cl)c(O)c(Cl)c1 [CAK01, 3,5-bis ((E)-3,5-dichloro-4-hydroxybenzylidene) piperidin-4-one] | 0 | 104.22 ± 1.99 | 1 | 99.22 ± 1.65 | 0 | 101.17 ± 2.97 | 0 | 100.73 ± 3.19 | 1 | 99.46 ± 2.16 | 1 | 99.33 ± 1.79 | 0 | 101.62 ± 3.23 | 0 | 100.73 ± 2.88 | 0 | 104.04 ± 1.43 | 1 | 79.62 | cytotoxicity to PC12 cells (PC12 cells [1]): no significant cytotoxicity; Relative growth rate (%) 48 h (PC12 cells [1]; PC12, 60 μM): 85.41 ± 3.45%; effect on survival of H2O2-damaged PC12 cells (PC12 cells [3]): increased the survival rate of cells in a concentration-dependent manner; effect on viability of CORT-damaged PC12 cells (PC12 cells [4]): did not show the potential to restore cell viability; solubility [5]: 0.17 mg/100 g
CN1C/C(=C\c2cc(Cl)c(O)c(Cl)c2)C(=O)/C(=C/c2cc(Cl)c(O)c(Cl)c2)C1 [CAK02, 3,5-bis ((E)-3,5-dichloro-4-hydroxybenzylidene)-1-methylpiperidin-4-one] | 0 | 102.93 ± 1.13 | 1 | 98.35 ± 1.84 | 1 | 99.40 ± 4.11 | 0 | 100.22 ± 3.73 | 1 | 95.08 ± 10.06 | 1 | 95.22 ± 1.86 | 1 | 99.48 ± 1.91 | 1 | 97.59 ± 8.36 | 1 | 88.18 ± 0.93 | 1 | 223.7 | cytotoxicity to PC12 cells (PC12 cells [1]): no significant cytotoxicity; Relative growth rate (%) 48 h (PC12 cells [1]; PC12, 60 μM): 98.48 ± 2.00%; effect on survival of H2O2-damaged PC12 cells (PC12 cells [3]): increased the survival rate of cells in a concentration-dependent manner; effect on viability of CORT-damaged PC12 cells (PC12 cells [4]): did not show the potential to restore cell viability; solubility [5]: 0.09 mg/100 g
CCN1C/C(=C\c2cc(Cl)c(O)c(Cl)c2)C(=O)/C(=C/c2cc(Cl)c(O)c(Cl)c2)C1 [CAK03, 3,5-bis ((E)-3,5-dichloro-4-hydroxybenzylidene)-1-ethylpiperidin-4-one] | 1 | 96.25 ± 0.78 | 1 | 98.96 ± 1.23 | 1 | 87.65 ± 5.86 | 1 | 94.59 ± 1.02 | 1 | 88.25 ± 5.62 | 1 | 89.84 ± 0.82 | 1 | 82.96 ± 2.83 | 1 | 95.25 ± 9.43 | 1 | 77.51 ± 4.22 | 3 | 46.56 | Relative growth rate (%) 48 h (PC12 cells [1]; PC12, 60 μM): 30.33±6.54%; effect on survival of H2O2-damaged PC12 cells (PC12 cells [3]): increased the survival rate of cells in a concentration-dependent manner; relative cell proliferation rate (PC12 cells [4]; 15 μM drug with 514.6 μM CORT): 59.15±0.51%; relative cell proliferation rate (PC12 cells [4]; 60 μM drug with 514.6 μM CORT): 59.92±1.53%; solubility [5]: 0.08 mg/100 g
CC(C)N1C/C(=C\c2cc(Cl)c(O)c(Cl)c2)C(=O)/C(=C/c2cc(Cl)c(O)c(Cl)c2)C1 [CAK04, 3,5-bis ((E)-3,5-dichloro-4-hydroxybenzylidene)-1-isopropylpiperidin-4-one] | 1 | 98.54 ± 5.42 | 0 | 100.97 ± 3.25 | 1 | 99.95 ± 5.76 | 0 | 100.45 ± 2.96 | 1 | 99.06 ± 5.73 | 1 | 99.75 ± 1.57 | 1 | 99.66 ± 2.34 | 1 | 98.02 ± 3.00 | 0 | 101.64 ± 3.95 | 0 | 57.78 | cytotoxicity to PC12 cells (PC12 cells [1]): no significant cytotoxicity; Relative growth rate (%) 48 h (PC12 cells [1]; PC12, 60 μM): 100.17 ± 2.92%; relative proliferation rate of cells (PC12 cells [3]; 30 μM drug with 585.8 μM H2O2, 24 h): 52.12±0.88%; effect on survival of H2O2-damaged PC12 cells (PC12 cells [3]): increased the survival rate of cells in a concentration-dependent manner; effect on viability of CORT-damaged PC12 cells (PC12 cells [4]): did not show the potential to restore cell viability; solubility [5]: 0.04 mg/100 g
O=C1O[C@H]([C@@H](O)CO)C(O)=C1O [Vit C, ascorbic acid, reference compound] |  |  |  |  |  |  |  |  |  |  |  |  |  |  |  |  |  |  |  | 54.54 | 

Source: US20250289786A1, “CHLORINATED MONOCARBONYL CURCUMIN COMPOUNDS, PREPARATION METHOD, AND APPLICATION” (Southwest Medical University, priority 2024, published 2025)
